We go through 1 compound from US20260159486A1, “BENZO[H]QUINAZOLINE-4-AMINE DERIVATIVES FOR THE TREATMENT OF CANCER” (Redona Therapeutics, Inc., priority 2021, published 2026).

For one test, the system named is CAL-51 cells. The test can be described thus: CAL-51 proliferation assay. The class given is cell-based. To be noted: Homo sapiens, CAL-51, 72 h, YO-PRO-1 Iodide readout. The essentials:
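Cells seeded at 750 per well, treated next day for 72 h at 37 °C with 0.5% final DMSO. Cell number read by YO-PRO-1 fluorescence after lysis, normalized to DMSO (100%) and time-zero cells (0%). GI50 from 4-parameter logistic fit, maximum constrained to 100%.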

The test system of test [1] is SW480 human colorectal cancer cells. The test can be described thus: SW480 colorectal cancer mouse xenograft model. The class given is in vivo, NOD/SCID mice. As for the experimental part: NOD/SCID mice of circa 23 g of weight were inoculated with 1×10^7 SW480 human colorectal cancer cells in 50% Matrigel™ subcutaneously in a flank. A pair match was performed when tumors reached an average volume of 100-150 mm^3 to distribute animals into treatment group and vehicle control (n=8/group). Tumor volumes (expressed in mm^3) were measured twice weekly using a caliper on days 1, 4, 8, 11, 15, 18, 22 and 23 of the treatment period. (A) The average TVol (±standard error of mean (SEM)) of each treatment group are shown. […] (B) Changes in BW in percentage (expressed in g, ±SEM) on days 1, 4, 8, 11, 15, 18, 22 and 23 of the treatment period. (C) Changes in vehicle- and Example 13-treated TVol expressed in mm^3. TVol ratio of Example 13-treated vs vehicle control (T/C) is indicated.
The efficacy of Example 13 was assessed in a mouse xenograft model. To this end, the SW480 colorectal cancer xenograft model was used, in which the tumor cells were injected subcutaneously into the flanks of immune-deficient NOD/SCID mice (lack functional/mature T and B cells, functional immature macrophages and residual NK cell function). […]
Tumor volumes (expressed in mm^3) were measured in two dimensions using a caliper on days 1, 4, 8, 11, 15, 18, 22 and 23 of the treatment period. […]

The GI50 is the concentration at which growth is held to half of that of the control.

Turning to `COCCN(C)c1c(O[C@H]2CC[C@H](N)CC2)ccc2c1CC(C)(C)c1c(N)ncnc1-2` [Example 13, 8-(trans-4-aminocyclohexoxy)-N7-(2-methoxyethyl)-N7,5,5-trimethyl-6H-benzo[h]quinazoline-4,7-diamine], in the test on CAL-51 cells, the GI50 was below 100 nM. Further, the “tumor volumes during the treatment period compared with vehicle-treated” value in test [1] (oral 45 mg/kg BID*BIW, treatment period) was “consistently smaller”. The “tumor volumes as % of the volume of the vehicle-treated group (T/C)” value in test [1] (study endpoint day 23, oral BID*BIW, 45 mg/kg days 1-10, 50 mg/kg days 11-22, p=0.06) came out at 61%.
